Reference: ChEMBL document CHEMBL1201862, “PubChem BioAssay data set” (2004)
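Compound exposure: 48 hours, 5 concentrations, 96-well plates. The concentration for 50% growth inhibition is given as GI50.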 Activity calls are given as the source filed them. No stated cut-off is given here; in the data, active = GI50 up to about 1.1 µM and inactive = higher.

Key:
Experiment in all cases: NCI anticancer screen, dose series, 48 h
NCI-H23 = tested on: NCI-H23
MCF7 = tested on: MCF7
Malme-3M = tested on: Malme-3M
MDA-MB-435 = tested on: MDA-MB-435
CAKI-1 = tested on: CAKI-1
HT-29 = tested on: HT-29
CCRF-CEM = tested on: CCRF-CEM
BT-549 = tested on: BT-549
SF-268 = tested on: SF-268
DU-145 = tested on: DU-145
TK-10 = tested on: TK-10
HCC 2998 = tested on: HCC 2998
SK-MEL-28 = tested on: SK-MEL-28
EKVX = tested on: EKVX
UACC-62 = tested on: UACC-62
U-251 = tested on: U-251
SF-295 = tested on: SF-295
NCI-H460 = tested on: NCI-H460
Hs-578T = tested on: Hs-578T
ACHN = tested on: ACHN

Row | SMILES | GI50 (NCI-H23) | GI50 (MCF7) | GI50 (Malme-3M) | GI50 (MDA-MB-435) | GI50 (CAKI-1) | GI50 (HT-29) | GI50 (CCRF-CEM) | GI50 (BT-549) | GI50 (SF-268) | GI50 (DU-145) | GI50 (TK-10) | GI50 (HCC 2998) | GI50 (SK-MEL-28) | GI50 (EKVX) | GI50 (UACC-62) | GI50 (U-251) | GI50 (SF-295) | GI50 (NCI-H460) | GI50 (Hs-578T) | GI50 (ACHN)
1 | COc1nc2ccc(CNc3ccc(C(=O)O)cc3)cc2nc1OC | > 10 µM (inactive) | > 10 µM (inactive) | > 10 µM (inactive) | > 10 µM (inactive) | > 10 µM (inactive) | > 10 µM (inactive) | > 10 µM (inactive) | > 10 µM (inactive) | > 10 µM (inactive) | > 10 µM (inactive) | > 10 µM (inactive) | > 10 µM (inactive) | > 10 µM (inactive) | > 10 µM (inactive) | > 10 µM (inactive) | > 10 µM (inactive) | > 10 µM (inactive) | > 10 µM (inactive) | > 10 µM (inactive) | > 10 µM (inactive)
2 | COC1OC2COC(C)(C)OC2C2OC(C)(C)OC12 (stereo not given) | 82.4 µM (inactive) | 23.6 µM (inactive) | > 100 µM (inactive) | > 100 µM (inactive) | 14.6 µM (inactive) | 60.5 µM (inactive) | 19 µM (inactive) | > 100 µM (inactive) | > 100 µM (inactive) | > 100 µM (inactive) | 49.8 µM (inactive) | > 100 µM (inactive) | > 100 µM (inactive) | 25.7 µM (inactive) | 45.1 µM (inactive) | 24.5 µM (inactive) | 22.6 µM (inactive) | – | 17 µM (inactive) | 41.8 µM (inactive)
3 | CCCC[N+](CCCC)(CCCC)CCCC.O=S(=O)([O-])ON=C1c2ccccc2-c2ccccc21 | > 100 µM (inactive) | > 100 µM (inactive) | – | > 100 µM (inactive) | > 100 µM (inactive) | > 100 µM (inactive) | > 100 µM (inactive) | > 100 µM (inactive) | > 100 µM (inactive) | > 100 µM (inactive) | > 100 µM (inactive) | > 100 µM (inactive) | > 100 µM (inactive) | > 100 µM (inactive) | > 100 µM (inactive) | > 100 µM (inactive) | > 100 µM (inactive) | > 100 µM (inactive) | > 100 µM (inactive) | > 100 µM (inactive)
4 | O=c1oc2c(Br)c(O)c(Br)cc2c2ccccc12 | 15.6 µM (inactive) | 16.3 µM (inactive) | 26.5 µM (inactive) | 36.6 µM (inactive) | 16 µM (inactive) | 30 µM (inactive) | 25.6 µM (inactive) | 29 µM (inactive) | 20.8 µM (inactive) | 29.3 µM (inactive) | 34.9 µM (inactive) | 33.3 µM (inactive) | 35.3 µM (inactive) | 23.2 µM (inactive) | 20.1 µM (inactive) | 32.1 µM (inactive) | 34 µM (inactive) | 24 µM (inactive) | 20.7 µM (inactive) | 30.8 µM (inactive)
5 | CC1=NN(C(=O)CC(=O)Nc2ccccc2C)C(=O)C1/N=N/c1ccc(C(=O)O)cc1 (stereo not given) | > 100 µM (inactive) | > 100 µM (inactive) | > 100 µM (inactive) | > 100 µM (inactive) | > 100 µM (inactive) | > 100 µM (inactive) | 86.9 µM (inactive) | > 100 µM (inactive) | > 100 µM (inactive) | > 100 µM (inactive) | > 100 µM (inactive) | > 100 µM (inactive) | > 100 µM (inactive) | > 100 µM (inactive) | > 100 µM (inactive) | > 100 µM (inactive) | > 100 µM (inactive) | > 100 µM (inactive) | 68.9 µM (inactive) | > 100 µM (inactive)
6 | COc1cc2c(/C=C3/C(=O)Nc4ccccc43)c(Cl)[nH]c2cc1C | 0.0407 µM (active) | 0.0502 µM (active) | – | 0.0141 µM (active) | 0.0689 µM (active) | 0.0495 µM (active) | 0.0583 µM (active) | 0.0603 µM (active) | 0.0644 µM (active) | 0.0955 µM (active) | 0.173 µM (active) | 0.0861 µM (active) | 9.12 µM (inactive) | 0.0521 µM (active) | 0.0371 µM (active) | 0.041 µM (active) | 0.0252 µM (active) | 0.0716 µM (active) | 0.0427 µM (active) | 0.0923 µM (active)
7 | Cc1ccc(O)c(-c2cc(-c3cccc(Br)c3)on2)c1 | 37.1 µM (inactive) | 13.2 µM (inactive) | 32.6 µM (inactive) | 21.7 µM (inactive) | 23.4 µM (inactive) | 25.5 µM (inactive) | 26.9 µM (inactive) | 27.7 µM (inactive) | 24.2 µM (inactive) | 33.6 µM (inactive) | 21.9 µM (inactive) | 22.4 µM (inactive) | 23.8 µM (inactive) | 34.4 µM (inactive) | 28.6 µM (inactive) | 17 µM (inactive) | 32.4 µM (inactive) | 29.1 µM (inactive) | 44.6 µM (inactive) | 35.6 µM (inactive)
8 | CCOC(=O)N1CCN(c2c(N)nc(C)nc2O)CC1 | > 100 µM (inactive) | > 100 µM (inactive) | > 100 µM (inactive) | > 100 µM (inactive) | – | > 100 µM (inactive) | > 100 µM (inactive) | > 100 µM (inactive) | > 100 µM (inactive) | > 100 µM (inactive) | > 100 µM (inactive) | > 100 µM (inactive) | > 100 µM (inactive) | > 100 µM (inactive) | – | > 100 µM (inactive) | > 100 µM (inactive) | > 100 µM (inactive) | > 100 µM (inactive) | > 100 µM (inactive)
9 | OCC1OC(NC(=S)NCCC(F)(F)C(F)(F)C(F)(F)C(F)(F)C(F)(F)C(F)(F)F)C(O)C(O)C1O (stereo not given) | > 100 µM (inactive) | > 100 µM (inactive) | > 100 µM (inactive) | 58.6 µM (inactive) | > 100 µM (inactive) | > 100 µM (inactive) | 38.3 µM (inactive) | > 100 µM (inactive) | > 100 µM (inactive) | > 100 µM (inactive) | > 100 µM (inactive) | > 100 µM (inactive) | 72.9 µM (inactive) | – | 67.9 µM (inactive) | 37.3 µM (inactive) | 80.9 µM (inactive) | > 100 µM (inactive) | > 100 µM (inactive) | 88.1 µM (inactive)
10 | Cc1ccc2[nH]c3[nH]c(=S)[nH]c(=O)c3c2c1 | > 100 µM (inactive) | > 100 µM (inactive) | > 100 µM (inactive) | > 100 µM (inactive) | > 100 µM (inactive) | > 100 µM (inactive) | > 100 µM (inactive) | > 100 µM (inactive) | > 100 µM (inactive) | > 100 µM (inactive) | > 100 µM (inactive) | > 100 µM (inactive) | – | > 100 µM (inactive) | > 100 µM (inactive) | – | > 100 µM (inactive) | – | > 100 µM (inactive) | > 100 µM (inactive)
11 | O=C(CCC(=O)c1ccc(Cl)cc1)NO | > 100 µM (inactive) | > 100 µM (inactive) | – | > 100 µM (inactive) | > 100 µM (inactive) | > 100 µM (inactive) | > 100 µM (inactive) | > 100 µM (inactive) | > 100 µM (inactive) | > 100 µM (inactive) | > 100 µM (inactive) | > 100 µM (inactive) | > 100 µM (inactive) | > 100 µM (inactive) | > 100 µM (inactive) | > 100 µM (inactive) | > 100 µM (inactive) | > 100 µM (inactive) | > 100 µM (inactive) | > 100 µM (inactive)
12 | O=C(c1ccccc1)n1cc(-c2ccccc2)c2c(=O)nc[nH]c21 | > 100 µM (inactive) | > 100 µM (inactive) | > 100 µM (inactive) | > 100 µM (inactive) | > 100 µM (inactive) | > 100 µM (inactive) | > 100 µM (inactive) | > 100 µM (inactive) | > 100 µM (inactive) | > 100 µM (inactive) | > 100 µM (inactive) | > 100 µM (inactive) | > 100 µM (inactive) | > 100 µM (inactive) | > 100 µM (inactive) | > 100 µM (inactive) | > 100 µM (inactive) | – | > 100 µM (inactive) | > 100 µM (inactive)
13 | COc1cc(C2SCC(=O)N2c2ccccn2)cc(OC)c1OC (stereo not given) | > 100 µM (inactive) | 49.2 µM (inactive) | – | 27 µM (inactive) | > 100 µM (inactive) | > 100 µM (inactive) | > 100 µM (inactive) | 98.6 µM (inactive) | > 100 µM (inactive) | > 100 µM (inactive) | > 100 µM (inactive) | > 100 µM (inactive) | > 100 µM (inactive) | > 100 µM (inactive) | 87.5 µM (inactive) | > 100 µM (inactive) | 81.1 µM (inactive) | > 100 µM (inactive) | > 100 µM (inactive) | > 100 µM (inactive)
14 | [N-]=[N+]=Nc1c(Cl)c(=O)n(-c2ccccc2)c2ccccc12 | 19.6 µM (inactive) | 21.8 µM (inactive) | 22.2 µM (inactive) | 19.1 µM (inactive) | 21.7 µM (inactive) | 23.2 µM (inactive) | 11.9 µM (inactive) | 19.9 µM (inactive) | 19.8 µM (inactive) | 29.2 µM (inactive) | > 10 µM (inactive) | 21.7 µM (inactive) | 17.6 µM (inactive) | – | 15.1 µM (inactive) | > 10 µM (inactive) | 30.7 µM (inactive) | 34.8 µM (inactive) | 25.3 µM (inactive) | 21.5 µM (inactive)
15 | COC1=C(Br)[C@H](O)[C@@]2(C=C1Br)CC(C(=O)NCCCCCNC(=N)N)=NO2 [APLYSINAMISINE II] | > 10 µM (inactive) | > 10 µM (inactive) | > 10 µM (inactive) | > 10 µM (inactive) | – | > 10 µM (inactive) | > 10 µM (inactive) | > 10 µM (inactive) | > 10 µM (inactive) | > 10 µM (inactive) | > 10 µM (inactive) | > 10 µM (inactive) | > 10 µM (inactive) | – | > 10 µM (inactive) | > 10 µM (inactive) | > 10 µM (inactive) | > 10 µM (inactive) | > 10 µM (inactive) | > 10 µM (inactive)
